For one compound, Activity and viability results are on record in ChEMBL document CHEMBL4311992, “Discovery of 3-(((9H-purin-6-yl)amino)methyl)-4,6-dimethylpyridin-2(1H)-one derivatives as novel tubulin polymerization inhibitors for treatment of cancer” (Eur J Med Chem, 2019).

For series [1], the target named is SRSF protein kinase 1 (Homo sapiens) (UniProt Q96SB4). The series is described as follows: Inhibition of human SRPK1 (2 to end residues) using RSRSRSRSRSRSRSR as substrate measured after 40 mins in presence of [gamma33P]ATP by scintillation counting method. Set-up: scale not given: the % may be the effect or the level left.
Chain of SRSF protein kinase 1 (Homo sapiens) (Q96SB4 whole entry): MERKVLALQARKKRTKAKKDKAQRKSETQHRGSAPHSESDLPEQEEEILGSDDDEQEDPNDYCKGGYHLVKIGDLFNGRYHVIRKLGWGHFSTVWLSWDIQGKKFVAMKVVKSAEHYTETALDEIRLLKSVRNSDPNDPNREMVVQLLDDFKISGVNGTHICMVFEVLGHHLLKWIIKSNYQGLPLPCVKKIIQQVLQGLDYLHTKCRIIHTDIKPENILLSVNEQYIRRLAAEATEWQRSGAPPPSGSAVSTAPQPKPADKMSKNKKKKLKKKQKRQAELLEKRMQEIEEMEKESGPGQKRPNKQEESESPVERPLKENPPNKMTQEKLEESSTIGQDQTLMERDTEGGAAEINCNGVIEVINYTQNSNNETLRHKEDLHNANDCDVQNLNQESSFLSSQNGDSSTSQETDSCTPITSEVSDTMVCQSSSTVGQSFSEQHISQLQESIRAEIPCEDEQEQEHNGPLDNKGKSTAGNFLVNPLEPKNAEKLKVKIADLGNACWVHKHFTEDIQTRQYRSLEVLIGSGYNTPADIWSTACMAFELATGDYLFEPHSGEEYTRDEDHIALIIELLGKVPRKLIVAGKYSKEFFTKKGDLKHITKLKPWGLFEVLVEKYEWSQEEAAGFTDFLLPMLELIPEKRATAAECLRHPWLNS
In series [2] the test system is SW-620. Put plainly: Induction of apoptosis in human SW620 cells assessed as viable cells at 50 nM measured after 48 hrs by Annexin V-FITC/propidium iodide staining-based flow cytometry (reference value: 94.7%). The format is functional. As to conditions: SW-620, 48 h, read-out: Activity. (A flow cytometer gives signals particle by particle.)
Series [3] deals with Hepatocyte growth factor receptor (Homo sapiens), P08581 [D1228N]. Put plainly: Inhibition of recombinant human MET A1209G/V1290L/D1246N mutant (974 to end residues) assessed as residual activity at 10 uM using KKKGQEEEYVFIE as substrate measured after 40 mins in presence of [gamma33P]ATP by scintillation counting method.
The target of series [4] is Myosin-IIIb (Homo sapiens) (UniProt Q8WXR4). Put plainly: Inhibition of recombinant full-length human MYO3B (1 to 326 residues) assessed as residual activity at 10 uM using RLGRDKYKTLRQIRQ as substrate measured after 40 mins in presence of [gamma33P]ATP by scintillation counting method.
Series [5] deals with Receptor tyrosine-protein kinase erbB-2 (Homo sapiens), P04626 [G778D]. Put plainly: Inhibition of recombinant human ErbB2 G778D mutant (676 to end residues) assessed as residual activity at 10 uM using poly (Glu, Tyr) 4:1 as substrate measured after 40 mins in presence of [gamma33P]ATP by scintillation counting method.
The target in series [6] is Hepatocyte growth factor receptor (Homo sapiens) (UniProt P08581). Put plainly: Inhibition of recombinant human MET A1209G/V1290L mutant (974 to end residues) assessed as residual activity at 10 uM using KKKGQEEEYVFIE as substrate measured after 40 mins in presence of [gamma33P]ATP by scintillation counting method.
Series [7] deals with Mitogen-activated protein kinase kinase kinase 10 (Homo sapiens) (UniProt Q02779). Put plainly: Inhibition of recombinant human MLK2 (1 to 449 residues) assessed as residual activity at 10 uM using myelin basic protein as substrate measured after 40 mins in presence of [gamma33P]ATP by scintillation counting method.
Chain of Mitogen-activated protein kinase kinase kinase 10 (Homo sapiens) (Q02779 whole entry, looked up, the tested form may be a part): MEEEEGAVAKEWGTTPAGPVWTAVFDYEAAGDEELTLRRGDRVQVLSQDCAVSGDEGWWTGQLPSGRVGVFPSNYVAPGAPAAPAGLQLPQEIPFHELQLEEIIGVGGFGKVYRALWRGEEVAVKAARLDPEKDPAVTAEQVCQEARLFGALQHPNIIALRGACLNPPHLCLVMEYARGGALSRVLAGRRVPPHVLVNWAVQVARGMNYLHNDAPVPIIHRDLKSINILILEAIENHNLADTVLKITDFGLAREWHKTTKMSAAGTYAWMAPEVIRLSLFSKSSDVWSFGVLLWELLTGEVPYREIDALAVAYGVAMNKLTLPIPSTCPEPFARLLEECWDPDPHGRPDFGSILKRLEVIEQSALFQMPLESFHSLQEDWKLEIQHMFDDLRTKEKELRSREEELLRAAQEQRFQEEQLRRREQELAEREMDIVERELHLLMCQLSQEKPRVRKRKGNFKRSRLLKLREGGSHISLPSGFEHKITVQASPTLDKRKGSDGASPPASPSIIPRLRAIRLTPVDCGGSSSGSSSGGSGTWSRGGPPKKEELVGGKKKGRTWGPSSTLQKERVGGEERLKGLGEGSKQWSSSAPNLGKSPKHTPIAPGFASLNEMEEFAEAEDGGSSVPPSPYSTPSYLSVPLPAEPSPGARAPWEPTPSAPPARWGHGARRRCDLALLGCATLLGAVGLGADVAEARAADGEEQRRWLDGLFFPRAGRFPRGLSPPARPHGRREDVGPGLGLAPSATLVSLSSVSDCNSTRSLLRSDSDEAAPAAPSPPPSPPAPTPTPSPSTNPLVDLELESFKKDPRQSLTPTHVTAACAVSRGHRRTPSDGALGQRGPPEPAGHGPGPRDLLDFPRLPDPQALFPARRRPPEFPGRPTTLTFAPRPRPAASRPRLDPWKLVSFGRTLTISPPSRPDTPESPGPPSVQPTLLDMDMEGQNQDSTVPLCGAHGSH
The species entered for series [8] is Mus musculus. The series is described as follows: Inhibition of recombinant full-length mouse PI3K p110alpha/p85alpha E542K mutant assessed as residual activity at 10 uM using phosphatidylinositol-4, 5-bisphosphate as substrate measured after 40 mins by HTRF assay. (TR-FRET usually uses a lanthanide donor and a delayed reading to cut background.)
Series [9] addresses Fibroblast growth factor receptor 2 (Homo sapiens) (UniProt P21802). Put plainly: Inhibition of recombinant human FGFR2 (456 to 770 residues) assessed as residual activity at 10 uM using poly(Glu, Tyr) 4:1 as substrate measured after 40 mins in presence of [gamma33P]ATP by scintillation counting method.
In series [10] the target is Death-associated protein kinase 3 (Homo sapiens) (UniProt O43293). Put plainly: Inhibition of human ZIPK (1 to 290 residues) using KKLNRTLSFAEPG as substrate measured after 40 mins in presence of [gamma33P]ATP by scintillation counting method. Set-up: scale not given: the % may be the effect or the level left.
Series [11] is filed under the species Mus musculus. Put plainly: Inhibition of recombinant full-length mouse PI3K p110alpha/p85alpha H1047R mutant assessed as residual activity at 10 uM using phosphatidylinositol-4, 5-bisphosphate as substrate measured after 40 mins by HTRF assay.
Series [12] addresses Serine/threonine-protein kinase TBK1 (Homo sapiens) (UniProt Q9UHD2). The series is described as follows: Inhibition of recombinant full-length human TBK1 assessed as residual activity at 10 uM using KRRRALS(p)VASLPGL as substrate measured after 40 mins in presence of [gamma33P]ATP by scintillation counting method.
Series [13] concerns the target Homeodomain-interacting protein kinase 3 (Homo sapiens) (UniProt Q9H422). Put plainly: Inhibition of recombinant human HIPK3 (161 to 562 residues) assessed as residual activity at 10 uM using myelin basic protein as substrate measured after 40 mins in presence of [gamma33P]ATP by scintillation counting method.
Series [14] is described as follows: Toxicity in Balb/c mouse lung at 80 mg/kg after 4 weeks by hematoxylin and eosin staining-based assay. As to conditions: in vivo, 672 h. The format is organism-based.
Series [15] concerns the target Serine/threonine-protein kinase 26 (Homo sapiens) (UniProt Q9P289). Put plainly: Inhibition of recombinant human MST4 (4 to 304 residues) assessed as residual activity at 10 uM using RLGRDKYKTLRQIRQ as substrate measured after 40 mins in presence of [gamma33P]ATP by scintillation counting method.
Series [16] addresses CDK12/Cyclin K (Homo sapiens) (UniProt O75909+Q9NYV4). The series is described as follows: Inhibition of recombinant full length human CDK12/cyclinK assessed as residual activity at 10 uM using RSRSRSRSRSRSRSR as substrate measured after 120 mins in presence of [gamma33P]ATP by scintillation counting method. The format is protein-complex assay.
Series [17] deals with HCT-116. Put plainly: Induction of apoptosis in human HCT116 cells assessed as necrotic cells at 25 nM measured after 48 hrs by Annexin V-FITC/propidium iodide staining-based flow cytometry (reference value: 1.16%). The format is functional.
The target in series [18] is Serine/threonine-protein kinase 4 (Homo sapiens) (UniProt Q13043). Put plainly: Inhibition of recombinant full-length human MST1 assessed as residual activity at 10 uM using KKSRGDYMTMQIG as substrate measured after 40 mins in presence of [gamma33P]ATP by scintillation counting method.
Chain of Serine/threonine-protein kinase 4 (Homo sapiens) (Q13043 whole entry): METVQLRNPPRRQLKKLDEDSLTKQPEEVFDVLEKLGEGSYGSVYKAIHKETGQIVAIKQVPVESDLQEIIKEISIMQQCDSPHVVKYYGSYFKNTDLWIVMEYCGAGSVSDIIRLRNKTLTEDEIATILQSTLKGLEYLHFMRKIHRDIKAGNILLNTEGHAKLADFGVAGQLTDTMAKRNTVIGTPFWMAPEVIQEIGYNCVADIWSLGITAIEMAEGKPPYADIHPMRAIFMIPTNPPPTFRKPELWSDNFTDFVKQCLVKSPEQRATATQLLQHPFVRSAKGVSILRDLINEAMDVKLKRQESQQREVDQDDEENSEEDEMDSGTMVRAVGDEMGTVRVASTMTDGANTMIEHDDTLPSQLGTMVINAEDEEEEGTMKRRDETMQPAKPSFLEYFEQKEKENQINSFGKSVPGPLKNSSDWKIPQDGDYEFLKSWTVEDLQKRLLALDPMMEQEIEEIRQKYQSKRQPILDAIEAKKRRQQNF
The target of series [19] is Transcription initiation factor TFIID subunit 1-like (Homo sapiens) (UniProt Q8IZX4). The series is described as follows: Inhibition of human TAF1L (1428 to end residues) using RRRFRPASPLRGPPK as substrate measured after 120 mins in presence of [gamma33P]ATP by scintillation counting method. More on the design: scale not given: the % may be the effect or the level left.
Chain of Transcription initiation factor TFIID subunit 1-like (Homo sapiens) (Q8IZX4 whole entry): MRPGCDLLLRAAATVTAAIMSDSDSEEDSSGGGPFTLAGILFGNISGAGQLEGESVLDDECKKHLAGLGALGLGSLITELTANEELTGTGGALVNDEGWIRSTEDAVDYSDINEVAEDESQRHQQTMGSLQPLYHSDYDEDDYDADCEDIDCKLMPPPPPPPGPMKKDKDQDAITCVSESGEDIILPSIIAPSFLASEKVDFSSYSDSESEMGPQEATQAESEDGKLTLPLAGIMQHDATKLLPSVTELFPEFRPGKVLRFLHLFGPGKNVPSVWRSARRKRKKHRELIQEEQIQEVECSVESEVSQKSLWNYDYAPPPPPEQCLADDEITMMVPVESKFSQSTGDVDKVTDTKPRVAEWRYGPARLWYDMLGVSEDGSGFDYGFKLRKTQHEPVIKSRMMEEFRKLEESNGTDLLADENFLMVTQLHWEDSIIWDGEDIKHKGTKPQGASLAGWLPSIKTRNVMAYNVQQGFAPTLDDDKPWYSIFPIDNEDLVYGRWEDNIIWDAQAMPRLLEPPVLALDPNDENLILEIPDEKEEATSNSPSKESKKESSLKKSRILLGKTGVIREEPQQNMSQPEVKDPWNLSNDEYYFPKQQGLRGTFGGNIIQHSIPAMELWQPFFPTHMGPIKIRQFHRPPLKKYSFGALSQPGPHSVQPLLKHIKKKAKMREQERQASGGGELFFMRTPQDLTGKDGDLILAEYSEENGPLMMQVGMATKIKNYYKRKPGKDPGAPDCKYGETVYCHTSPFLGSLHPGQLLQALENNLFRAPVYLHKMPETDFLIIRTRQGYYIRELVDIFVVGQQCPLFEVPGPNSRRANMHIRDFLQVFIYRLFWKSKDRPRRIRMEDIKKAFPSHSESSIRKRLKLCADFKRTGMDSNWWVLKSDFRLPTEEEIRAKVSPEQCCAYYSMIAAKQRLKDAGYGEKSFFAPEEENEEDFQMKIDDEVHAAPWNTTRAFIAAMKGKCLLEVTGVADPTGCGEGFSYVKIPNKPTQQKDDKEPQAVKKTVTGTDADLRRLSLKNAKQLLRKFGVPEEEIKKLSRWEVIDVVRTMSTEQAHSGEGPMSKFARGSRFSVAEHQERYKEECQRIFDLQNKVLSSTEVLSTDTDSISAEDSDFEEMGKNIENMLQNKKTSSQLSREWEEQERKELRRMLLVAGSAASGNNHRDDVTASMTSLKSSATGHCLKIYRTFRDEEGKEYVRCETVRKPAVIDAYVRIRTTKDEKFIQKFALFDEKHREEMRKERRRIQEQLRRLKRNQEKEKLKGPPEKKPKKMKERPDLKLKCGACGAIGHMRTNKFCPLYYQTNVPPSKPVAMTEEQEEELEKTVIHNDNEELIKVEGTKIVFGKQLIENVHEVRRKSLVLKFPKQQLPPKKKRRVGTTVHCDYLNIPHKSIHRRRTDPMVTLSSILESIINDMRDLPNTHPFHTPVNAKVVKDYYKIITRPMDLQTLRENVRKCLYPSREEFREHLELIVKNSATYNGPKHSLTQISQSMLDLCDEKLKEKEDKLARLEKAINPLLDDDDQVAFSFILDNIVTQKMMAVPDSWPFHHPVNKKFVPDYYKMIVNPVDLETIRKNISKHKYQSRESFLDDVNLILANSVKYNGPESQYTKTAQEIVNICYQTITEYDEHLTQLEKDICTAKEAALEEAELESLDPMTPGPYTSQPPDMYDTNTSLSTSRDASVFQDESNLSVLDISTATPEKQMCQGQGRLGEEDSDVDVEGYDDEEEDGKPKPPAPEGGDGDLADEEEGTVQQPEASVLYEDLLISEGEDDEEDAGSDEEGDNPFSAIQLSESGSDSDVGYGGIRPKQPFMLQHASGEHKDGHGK

Series [20] deals with Serine/threonine-protein kinase Nek6 (Homo sapiens) (UniProt Q9HC98). The series is described as follows: Inhibition of recombinant human NEK6 (2 to end residues) assessed as residual activity at 10 uM using FLAKSFGSPNRAYKK as substrate measured after 40 mins in presence of [gamma33P]ATP by scintillation counting method.
Chain of Serine/threonine-protein kinase Nek6 (Homo sapiens) (Q9HC98 whole entry): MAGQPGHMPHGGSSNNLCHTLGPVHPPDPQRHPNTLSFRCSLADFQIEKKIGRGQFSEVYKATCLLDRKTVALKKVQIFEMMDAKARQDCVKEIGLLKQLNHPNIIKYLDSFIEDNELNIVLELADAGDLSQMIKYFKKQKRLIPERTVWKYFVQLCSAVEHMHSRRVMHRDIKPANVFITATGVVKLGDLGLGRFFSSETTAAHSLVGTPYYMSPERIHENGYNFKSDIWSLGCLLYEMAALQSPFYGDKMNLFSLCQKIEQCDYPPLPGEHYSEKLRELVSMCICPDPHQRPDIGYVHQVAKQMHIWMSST
Series [21] addresses Inhibitor of nuclear factor kappa-B kinase subunit epsilon (Homo sapiens) (UniProt Q14164). Put plainly: Inhibition of recombinant full-length human IKKepsilon assessed as residual activity at 10 uM using casein as substrate measured after 40 mins in presence of [gamma33P]ATP by scintillation counting method.
In series [22] the target is Serine/threonine-protein kinase WNK2 (Homo sapiens) (UniProt Q9Y3S1). The series is described as follows: Inhibition of human WNK2 (166 to 489 residues) using myelin basic protein as substrate measured after 40 mins in presence of [gamma33P]ATP by scintillation counting method. Set-up: scale not given: the % may be the effect or the level left.
Series [23] addresses Serine/threonine-protein kinase 3 (Homo sapiens) (UniProt Q13188). Put plainly: Inhibition of recombinant full-length human MST2 (2 to end residues) assessed as residual activity at 10 uM using myelin basic protein as substrate measured after 40 mins in presence of [gamma33P]ATP by scintillation counting method.

Chain of Fibroblast growth factor receptor 2 (Homo sapiens) (P21802 22-821 limits assumed): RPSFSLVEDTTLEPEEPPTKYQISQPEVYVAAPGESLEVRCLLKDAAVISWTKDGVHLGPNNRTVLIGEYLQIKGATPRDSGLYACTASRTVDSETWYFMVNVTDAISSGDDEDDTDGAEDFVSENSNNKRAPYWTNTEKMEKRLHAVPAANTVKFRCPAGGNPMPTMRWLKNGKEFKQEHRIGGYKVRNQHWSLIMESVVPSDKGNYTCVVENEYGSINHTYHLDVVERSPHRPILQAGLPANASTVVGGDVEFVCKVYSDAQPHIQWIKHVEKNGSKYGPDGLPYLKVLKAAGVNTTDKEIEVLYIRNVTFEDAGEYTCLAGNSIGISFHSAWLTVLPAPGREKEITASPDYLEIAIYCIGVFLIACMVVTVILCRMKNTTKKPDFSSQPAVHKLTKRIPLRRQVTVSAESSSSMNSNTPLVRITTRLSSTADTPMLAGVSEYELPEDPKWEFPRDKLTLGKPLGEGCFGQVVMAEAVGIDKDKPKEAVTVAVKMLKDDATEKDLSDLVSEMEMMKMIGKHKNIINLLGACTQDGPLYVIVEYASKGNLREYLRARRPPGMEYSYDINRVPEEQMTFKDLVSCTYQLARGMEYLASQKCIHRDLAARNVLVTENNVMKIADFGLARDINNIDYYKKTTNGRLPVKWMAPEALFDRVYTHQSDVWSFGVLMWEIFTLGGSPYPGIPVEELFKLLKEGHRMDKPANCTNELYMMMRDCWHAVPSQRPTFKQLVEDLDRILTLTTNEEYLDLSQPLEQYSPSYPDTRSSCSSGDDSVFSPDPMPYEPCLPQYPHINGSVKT

As to `Cc1cc(C)c(CNc2nc(Cl)nc3c2ncn3C2CCCC2)c(=O)[nH]1`, the Activity in series [1] amounted to 101%; in [3], 112%; in [4] it was 111%; in series [5], 109%; in [6], 80%; in series [7] it was 91%. Also, the Activity in series [8] turned out to be 95%; in series [9], 106%; in series [10], 110%; in series [11], 99%; in series [12], 99.5%; in [13], 106%. Moreover, the Activity entry is “Non-Toxic” in series [14]; 132% in series [15]; 104% in series [16]; 0.846% in series [17]; 122% in series [18]; 108% in series [19]. Besides, the Activity worked out at 108% in [20], 98.5% in series [21], 110% in [22] and 110% in series [23]. In series [2], the viability at 0.05 µM is 83.4%.
